Solubility time data for 1 molecule are collected here from US20190015383A1, “CANNABINOID COMPOSITIONS AND METHODS OF PREPARATION THEREOF” (5071, Inc., priority 2017, published 2019).

This data set is described as follows: Water solubility testing (solubility time in water). It counts as physicochemical. The note with it: 10 mg sample in 240 mL water, magnetic stirring. As for the experimental part: Water solubility testing was performed for Compositions C, D1, D2, and E described in Examples 3, 4, and 6. Each composition was tested at temperatures of 22° C. (tap water) and 10° C. (iced tap water). For each test, 240 mL of water at the target temperature (22° C. or 10° C.) was added to a beaker and a magnetic stirrer used with medium agitation, creating a slight vortex. A 10 mg sample of the composition to be tested was added over a 1-2 second time period and allowed to mix. The time in seconds until no particulates were visually discernable (either suspended in solution or settled out) was recorded as the solubility time. The solubility of table sugar (i.e., granulated sucrose) was also tested according to the same procedure for comparison.
The following categories were used to assess solubility characteristics: <30 sec=excellent to good solubility, 1-3 min=fair solubility, 3-5 min=poor solubility, and >5 min=insoluble.

For the molecule `OC[C@H]1O[C@@](CO)(O[C@H]2O[C@H](CO)[C@@H](O)[C@H](O)[C@H]2O)[C@@H](O)[C@@H]1O` [Table sugar, sucrose], the Solubility time was under 60 s (10° C. (iced tap water)) and 22 s (22° C. (tap water)).
